Literature values in US20160213008A1, “ULTRASONIC MICRO-DROPLET RELEASE OF MATRIX BOUND FOOD DERIVED ANTIMICROBIALS” (priority 2015, published 2016).

Conditions: Cavallito and colleagues 1944

In the case of `C=CCSSC=CC[S+]([O-])CC=C` (mixture of isomers) [Ajoene], the “antibacterial and antifungal / antimicrobial activity” value is listed as “shows antimicrobial properties”.
In the case of `C=CCS[S+]([O-])CC=C` (centres unmarked) [allicin], the “antibacterial and antifungal / antimicrobial activity” value is given as “attributable”.
